# Experimental data: patent US11597726B2 (Certego Therapeutics Inc., priority 2020, dated 2023)
# Entries after “also recorded” stand apart in the source; their conditions may differ. Like-named read-outs stand apart in the source and are kept apart here.
# Assays:
# cytochrome P450s (CYPs) = details: cited from earlier work
# GABAA receptor = details: in vivo; cited from earlier work
# [1] = test system: patients with severe major depressive disorder; details: 490 patients; daily oral escitalopram 20 mg and gaboxadol 5 mg or 10 mg; cited from earlier work
# [2] = human doses equivalent to the mouse 6 mg/kg dose; cited from earlier work
# c-fos = assay: Pharmacomapping: whole-brain drug-evoked c-fos activation; details: for brain activation of each drug alone: gaboxadol at 3 mg/kg alone, ketamine at 6 mg/kg alone; for brain activation compared with gaboxadol: BSTrh; for brain activation compared with non-deuterated gaboxadol at the same dose: 2.5 hour post administration
# Method: (A) Mice are treated with a drug or vehicle solution for the control group using either intraperitoneal (i.p.), per oral (p.o.). subcutaneous (s.c.), intramuscular (i.m.) or intravenous (i.v.) delivery. […] (C) After that period the mice are killed, the c-fos induction is visualized using whole-brain immunostaining, the brains are chemically cleared and finally imaged by light-sheet fluorescent microscopy (LSFM). (D) The whole-brain scans are represented as serial section datasets typically with XYZ resolution of 4×4×5 microns. (E) The c-fos+ cells are detected in these datasets using custom trained machine learning algorithms. (F) The whole-brain distribution of the detected c-fos+ cells is represented in 3D as a spatial map of centroid points in the 3D space of the mouse brain. (G) This 3D map distribution is registered to a reference mouse brain and spatially voxelized using overlapping 150-micron sphere voxels.
# At 2.5 hour post administration, the mice were euthanized and brains were immediately preserved by 4% paraformaldehyde (PFA).
# mice = assay: Onset of sedation (immobility) in the open field test (OFT); assay type: in vivo
# rodent = assay: d-amphetamine-induced hyperlocomotion (rodent model of mania); assay type: in vivo; details: gaboxadol at 3 mg/kg alone
# [3] = 20 mg dose; cited from earlier work
# mouse = assay: Forced swim test; assay type: in vivo; details: single dose 10 mg/kg, 1 hour and 24 hours after drug delivery, 6 min forced swim
# Method: The forced swim test is a frequently used behavioral protocol with a well-established therapeutic predictability for a broad range of antidepressants including ketamine (Porsolt et al. 1977; Cryan and Mombereau 2004; Cryan et al. 2005; Lucki et al. 2001). In this test the mouse is put in a beaker filled with water and the time spent struggling, swimming and floating is measured, with the time spent floating—when the mouse stops struggling to swim—being used as a behavioral correlate of depression.
# [4] = test system: combined delta, theta and alpha activity; details: 160 minutes after the first treatment; cited from earlier work
# insomnia = details: three-month efficacy study; cited from earlier work
# [5] = cited from earlier work
smiles,measurement,setting,value
"Oc1noc2c1CCNC2 [gaboxadol, 4,5,6,7-tetrahydroisoxazolo (5,4-c) pyridin-3-ol]",metabolism by CYPs,cytochrome P450s (CYPs),not metabolized by CYPs
same,GABAA receptor saturation level (blood level),GABAA receptor,over 900 ng/ml
same,benefit of oral gaboxadol added to escitalopram,[1],no additional benefit relative to escitalopram alone
same,adverse side-effects in clinical trials,[2],no significant adverse side-effects
same,whole-brain activation pattern compared with ketamine,c-fos; gaboxadol 10 mg/kg vs ketamine 10 mg/kg,very similar brain activation as ketamine
same,brain activation of each drug alone,c-fos,neither gaboxadol at 3 mg/kg nor ketamine at 6 mg/kg alone evoked any brain activation detectable
same,brain activation of each compound alone,"c-fos; lithium at 150 mg/kg alone, gaboxadol at 6 mg/kg alone",moderate brain activation on their own
same,onset of sedation (start of immobility),mice,15 min
same,effect on amphetamine-induced hyperlocomotion,rodent,only modestly
same,AUC0-∞,[3],about 900 ng*hr/ml
same,Cmax,[3],900 ng/mL
same,plasma Tmax,[3],≤ 1.5 h
same,time spent floating (immobility) compared to vehicle treated control group,mouse,significantly reduced the time spent in floating; also recorded: nearly identical behavioral effect as the ketamine group
same,"whole head MEG planar gradiometer increase in combined delta, theta and alpha activity",[4],≥ +3
same,effects in sleep onset and sleep maintenance,insomnia,failed to show significant effects in sleep onset and sleep maintenance
[Li] [lithium],typical therapeutic concentration in the serum,[5]; acute treatment of manic episodes,0.6 to 1.2 mmol/L
same,serum concentration associated with mild toxicity,[5]; in vivo,1200 to 2500 µM
same,serum concentration that can be life-threatening,[5]; in vivo,greater than 3.5 mmol/L
"[2H]C1([2H])NC([2H])([2H])C([2H])([2H])c2c1o[nH]c2=O [d6-gaboxadol, 4,5,6,7-tetrahydroisoxazolo[5,4-c]pyridin-3(2H)-one-4,4,5,5,7,7-d6]",brain activation compared with gaboxadol,"c-fos; 6 mg per kg, GU, VISC, AI (AId, AIp), TEa, CLA, BSTa, LC",higher brain activation than gaboxadol
same,brain activation compared with gaboxadol,"c-fos; 10 mg per kg, ACA (ACAd, ACAv), ILA, GU, VISC, AI, TEa, CLA, BSTa",more efficacious in evoking brain activation than gaboxadol
same,brain activation compared with gaboxadol,"c-fos; 20 mg per kg, BSTa, BSTov, BSTp, LC, CP, STRv (ACB, OT)",higher brain activation than gaboxadol
same,brain activation compared with non-deuterated gaboxadol at the same dose,"c-fos; 6, 10 and 20 mg per kg i.p.",considerably higher brain activation than non-deuterated gaboxadol
same,onset of sedation (start of immobility),mice,11 min
"[2H]C1([2H])NCCc2c1o[nH]c2=O [d2-gaboxadol 7,7, 4,5,6,7-tetrahydroisoxazolo[5,4-c]pyridin-3(2H)-one-7,7-d2]",brain activation compared with non-deuterated gaboxadol at the same dose,"c-fos; 6 mg/kg i.p., ORBm, ILA, ACAd, AI, GU, VISC, CLA, LSr, BSTa",considerably higher brain activation than non-deuterated gaboxadol
same,brain activation compared with non-deuterated gaboxadol at the same dose,"c-fos; 6 mg/kg i.p., ORBm, ILA, ACAd, AI, GU, VISC, CLA, LSr, BSTa, listed as d2-gaboxadol",considerably stronger
same,enhancement of synergies with lithium compared with non-deuterated gaboxadol,c-fos; 6 mg/kg with lithium at 150 mg/kg (FIG. 38),significantly stronger enhancement of synergies with lithium than is found with non-deuterated gaboxadol
same,level of brain activation compared with the same doses of non-deuterated gaboxadol,"c-fos; 6, 10 and in some cases 20 mg/kg, certain brain areas (e.g. ILA and CP)",higher than the level of activation obtained by the same doses of non-deuterated gaboxadol
same,dose of non-deuterated gaboxadol with equivalent/comparable brain activation,"c-fos; d2-gaboxadol 7,7 at 6 mg/kg, mice, listed as ring carbon deuterated gaboxadol (7,7-d2), 6 mg/kg",10 to 20 mg/kg
same,onset of sedation (start of immobility),mice,13 min
same,onset of sedation (start of immobility),mice; listed as d2-gaboxadol,13 to 14 min
CNC1(c2ccccc2Cl)CCCCC1=O (stereo not shown) [ketamine],whole-brain activation pattern,"c-fos; acute single dose 10 mg/kg, many cortical areas and midline thalamic nuclei",very robust and broad activation
same,whole-brain activation pattern,c-fos; acute single dose 5 and 100 mg/kg,modest activation
same,brain activation of each drug alone,c-fos,neither gaboxadol at 3 mg/kg nor ketamine at 6 mg/kg alone evoked any brain activation detectable
same,time spent floating (immobility) compared to vehicle treated control group,mouse,significantly reduced the time spent in floating; also recorded: significantly decreases the time the drug treated mice spent floating
